Source: patent publication US6403139B1, “Process for treating fruit and vegetables using tocopherols as antioxidants” (Xeda International, priority 1999, dated 2002)

Test system: Granny Smith apples
Experiment: Anti-scald treatment on apples, treating composition applied for 3 minutes by immersion or spraying, then 8 days storage at 20° C.
Description: The examples which follow illustrate the invention in further detail. In these examples, the treating composition, preheated to 50° C., is applied for 3 minutes to Granny Smith apples, by immersion or spraying. Treating composition (Composition A) consists of water and 1500 ppm of α-tocopherol. The treatment is carried out by applying the treating composition, brought to 50° C., to the apples for 3 minutes. The treated apples are then stored at ambient temperature (20° C.) for 8 days. The proportion of healthy apples, the proportion of apples for which less than 1 cm^2 of surface area is deteriorated by scald, and the proportion of apples for which more than 1 cm^2 of surface area is affected are then quantified. The apples are treated under the same conditions as in Example 1. By way of additional comparison, the same amount of apples was treated with composition D maintained at ambient temperature (i.e. between 20 and 22° C.). The apples thus treated were then stored for 8 days at ambient temperature (20° C.).

## Cc1c(C)c2c(c(C)c1O)CC[C@@](C)(CCC[C@H](C)CCC[C@H](C)CCCC(C)C)O2 [vitamin e, 5,7,8-trimethyltocol]
  antioxidant activity at ambient temperature: virtually zero
